Assay results reported in US20130344026A1, “Dimeric Smac Mimetics” (priority 2009, published 2013).
Like-named read-outs stand apart in the source and are kept apart here.

System: PANC-1 cells
Test: cell viability assay in PANC-1 cells (compound alone, + 100 ng/ml TNFa, + 300 ng/ml TRAIL)
Assay type: cell-based
[1] = Homo sapiens, PANC-1, compound alone, Tables 15-18, read-out: IC50 (uM) in cell viability assay in PANC-1 cells: Cmpnd alone
[2] = with 100 ng/ml TNFa, Tables 15-18, read-out: IC50 (uM) in cell viability assay in PANC-1 cells: Cmpnd + 100 ng/ml TNFa
[3] = with 300 ng/ml TRAIL, Tables 15-18, read-out: IC50 (uM) in cell viability assay in PANC-1 cells: Cmpnd + 300 ng/ml TRAIL
[4] = Homo sapiens, PANC-1 cells, compound alone, read-out: IC50 (uM) in cell viability assay in PANC-1 cells, Cmpnd alone
[5] = PANC-1 cells, + 100 ng/ml TNFa, read-out: IC50 (uM) in cell viability assay in PANC-1 cells, Cmpnd + 100 ng/ml TNFa
[6] = PANC-1 cells, + 300 ng/ml TRAIL, read-out: IC50 (uM) in cell viability assay in PANC-1 cells, Cmpnd + 300 ng/ml TRAIL
[7] = PANC-1 cells, compound alone, read-out: IC50 (uM) in cell viability assay in PANC-1 cells, Cmpnd alone

SMILES	IC50 [1]	IC50 [2]	IC50 [3]	IC50 [4]	IC50 [5]	IC50 [6]	IC50 [7]
CN[C@@H](C)C(=O)N[C@@H](CCCCNC(=O)NCCCC[C@H](NC(=O)[C@H](C)NC)C(=O)N1C[C@@H](Oc2ccccc2)C[C@H]1C(=O)N[C@@H]1CCCc2ccccc21)C(=O)N1C[C@@H](Oc2ccccc2)C[C@H]1C(=O)N[C@@H]1CCCc2ccccc21 [Compound P2-37]	> 1 µM	0.174 µM	0.527 µM				
CN[C@@H](C)C(=O)N[C@@H](Cc1ccc(NC(=O)Nc2ccc(C[C@H](NC(=O)[C@H](C)NC)C(=O)N3CCC[C@H]3C(=O)N[C@@H]3CCCc4ccccc43)cc2)cc1)C(=O)N1CCC[C@H]1C(=O)N[C@@H]1CCCc2ccccc21 [Compound P2-38]	> 1 µM	0.021 µM	0.037 µM				
CN[C@@H](C)C(=O)N[C@@H](CCNC(=O)NCC[C@H](NC(=O)[C@H](C)NC)C(=O)N1CCC[C@H]1C(=O)N[C@@H]1CCCc2ccccc21)C(=O)N1CCC[C@H]1C(=O)N[C@@H]1CCCc2ccccc21 [Compound P2-39]	> 1 µM	0.349 µM	0.225 µM				
CN[C@@H](C)C(=O)N[C@@H](CC(=O)NCCNC(=O)C[C@H](NC(=O)[C@H](C)NC)C(=O)N1CCC[C@H]1C(=O)N[C@@H]1CCCc2ccccc21)C(=O)N1CCC[C@H]1C(=O)N[C@@H]1CCCc2ccccc21 [Compound P2-40]	> 1 µM	0.19 µM	0.25 µM				
CN[C@@H](C)C(=O)N[C@@H](CC(=O)NCC#CC#CCNC(=O)C[C@H](NC(=O)[C@H](C)NC)C(=O)N1CCC[C@H]1C(=O)N[C@@H]1CCCc2ccccc21)C(=O)N1CCC[C@H]1C(=O)N[C@@H]1CCCc2ccccc21 [Compound P2-41]	> 1 µM	0.094 µM	0.092 µM				
CN[C@@H](C)C(=O)N[C@@H](CC(=O)NCC=CC=CCNC(=O)C[C@H](NC(=O)[C@H](C)NC)C(=O)N1CCC[C@H]1C(=O)N[C@@H]1CCCc2ccccc21)C(=O)N1CCC[C@H]1C(=O)N[C@@H]1CCCc2ccccc21 [Compound P2-42]	> 1 µM	0.091 µM	0.148 µM				
CN[C@@H](C)C(=O)N[C@@H](CCNCc1ccc(CNCC[C@H](NC(=O)[C@H](C)NC)C(=O)N2CCC[C@H]2C(=O)N[C@@H]2CCCc3ccccc32)cc1)C(=O)N1CCC[C@H]1C(=O)N[C@@H]1CCCc2ccccc21 [Compound P2-43]	> 1 µM	0.012 µM	0.016 µM				
CN[C@@H](C)C(=O)N[C@@H](CCC(=O)Nc1cccc(CCc2cccc(NC(=O)CC[C@H](NC(=O)[C@H](C)NC)C(=O)N3CCC[C@H]3C(=O)N[C@@H]3CCCc4ccccc43)c2)c1)C(=O)N1CCC[C@H]1C(=O)N[C@@H]1CCCc2ccccc21 [Compound P2-44]	> 1 µM	0.017 µM	0.01 µM				
CN[C@@H](C)C(=O)NC(CCC(=O)Nc1ccc(CCc2ccc(NC(=O)CCC(NC(=O)[C@H](C)NC)C(=O)N3CCC[C@H]3C(=O)N[C@@H]3CCCc4ccccc43)cc2)cc1)C(=O)N1CCC[C@H]1C(=O)NC1CCCc2ccccc21 (stereo partly drawn) [Compound P2-45]	> 1 µM	0.002 µM	0.004 µM				
CN[C@@H](C)C(=O)N[C@H](C(=O)N1C[C@H](NC(=O)c2ccc(CCc3ccc(C(=O)N[C@@H]4C[C@@H](C(=O)N[C@@H]5CCCc6ccccc65)N(C(=O)[C@@H](NC(=O)[C@H](C)NC)C(C)(C)C)C4)cc3)cc2)C[C@H]1C(=O)N[C@@H]1CCCc2ccccc21)C(C)(C)C [Compound P2-46]	> 1 µM	0.0007 µM	0.0009 µM				
CN[C@@H](C)C(=O)N[C@@H](CCCCCC[C@H](NC(=O)[C@H](C)NC)C(=O)N1CCC[C@H]1CNC(=O)c1ccccn1)C(=O)N1CCC[C@H]1CNC(=O)c1ccccn1 [Compound P2-47]	> 1 µM	0.108 µM	0.153 µM				
CN[C@@H](C)C(=O)N[C@@H](CCCCNC(=O)c1cccc(C(=O)NCCCC[C@H](NC(=O)[C@H](C)NC)C(=O)N2CCC[C@H]2Cn2nnnc2Sc2ccccc2)c1)C(=O)N1CCC[C@H]1Cn1nnnc1Sc1ccccc1 [Compound P2-48]	> 1 µM	0.263 µM	0.398 µM				
CN[C@@H](C)C(=O)N[C@@H](CCC(=O)Nc1cccc(C#Cc2cccc(NC(=O)CC[C@H](NC(=O)[C@H](C)NC)C(=O)N3CCC[C@H]3C(=O)N[C@@H]3CCCc4ccccc43)c2)c1)C(=O)N1CCC[C@H]1C(=O)N[C@@H]1CCCc2ccccc21 [Compound P2-49]	> 1 µM	0.033 µM	0.033 µM				
CN[C@@H](C)C(=O)N[C@@H](CCNC(=O)c1ccc(-c2ccc(C(=O)NCC[C@H](NC(=O)[C@H](C)NC)C(=O)N3CCC[C@H]3C(=O)N[C@@H]3CCCc4ccccc43)cc2)cc1)C(=O)N1CCC[C@H]1C(=O)N[C@@H]1CCCc2ccccc21 [Compound P2-50]	> 1 µM	0.067 µM	0.019 µM				
CN[C@@H](CO)C(=O)N[C@H](C(=O)N1C[C@@H](NC(=O)c2cccc(C(=O)N[C@H]3C[C@@H](C(=O)N[C@H](C)c4ccccc4)N(C(=O)[C@@H](NC(=O)[C@H](CO)NC)C(C)(C)C)C3)c2)C[C@H]1C(=O)N[C@H](C)c1ccccc1)C(C)(C)C [Compound P3-90]				> 1 µM	0.007 µM	0.021 µM	
CN[C@@H](CO)C(=O)N[C@H](C(=O)N1C[C@@H](NC(=O)c2cc(C(=O)N[C@H]3C[C@@H](C(=O)N[C@H](C)c4ccccc4)N(C(=O)[C@@H](NC(=O)[C@H](CO)NC)C(C)(C)C)C3)[nH]n2)C[C@H]1C(=O)N[C@H](C)c1ccccc1)C(C)(C)C [Compound P3-91]				> 1 µM	0.152 µM	0.225 µM	
CN[C@@H](C)C(=O)N[C@H](C(=O)N1C[C@@H](NC(=O)c2nc[nH]c2C(=O)N[C@H]2C[C@@H](C(=O)N[C@H](C)c3ccccc3)N(C(=O)[C@@H](NC(=O)[C@H](C)NC)C(C)(C)C)C2)C[C@H]1C(=O)N[C@H](C)c1ccccc1)C(C)(C)C [Compound P3-92]				> 1 µM	0.099 µM	0.072 µM	
CN[C@@H](C)C(=O)N[C@H](C(=O)N1C[C@@H](NC(=O)CCCCCCCCC(=O)N[C@H]2C[C@@H](C(=O)N[C@H](C)c3ccccc3)N(C(=O)[C@@H](NC(=O)[C@H](C)NC)C(C)(C)C)C2)C[C@H]1C(=O)N[C@H](C)c1ccccc1)C(C)(C)C [Compound P3-93]				> 1 µM	0.012 µM	0.043 µM	
CN[C@@H](C)C(=O)N[C@H](C(=O)N1C[C@@H](NC(=O)c2ccc(C(=O)N[C@H]3C[C@@H](C(=O)N[C@@H]4CCCc5ccccc54)N(C(=O)[C@@H](NC(=O)[C@H](C)NC)C(C)(C)C)C3)nc2)C[C@H]1C(=O)N[C@@H]1CCCc2ccccc21)C(C)(C)C [Compound P3-94]				> 1 µM	0.003 µM	0.006 µM	
CN[C@@H](C)C(=O)N[C@H](C(=O)N1C[C@@H](NC(=O)c2[nH]c(C(=O)N[C@H]3C[C@@H](C(=O)N[C@H](C)c4ccccc4)N(C(=O)[C@@H](NC(=O)[C@H](C)NC)C(C)(C)C)C3)c3c2OCCO3)C[C@H]1C(=O)N[C@H](C)c1ccccc1)C(C)(C)C [Compound P3-95]				> 1 µM	0.006 µM	0.006 µM	
CN[C@@H](C)C(=O)N[C@H](C(=O)N1C[C@@H](NC(=O)C2CCCC(C(=O)N[C@H]3C[C@@H](C(=O)N[C@H](C)c4ccccc4)N(C(=O)[C@@H](NC(=O)[C@H](C)NC)C(C)(C)C)C3)C2)C[C@H]1C(=O)N[C@H](C)c1ccccc1)C(C)(C)C (stereo partly drawn) [Compound P3-96]				> 1 µM	0.055 µM	0.006 µM	
CN[C@@H](C)C(=O)N[C@H](C(=O)N1C[C@@H](NC(=O)C2CCCC(C(=O)N[C@H]3C[C@@H](C(=O)N[C@H](C)c4ccccc4)N(C(=O)[C@@H](NC(=O)[C@H](C)NC)C(C)(C)C)C3)C2)C[C@H]1C(=O)N[C@H](C)c1ccccc1)C(C)(C)C (stereo partly drawn) [Compound P3-97]					0.059 µM	0.065 µM	> 1 µM
CN[C@@H](C)C(=O)N[C@@H](CCC(=O)Nc1ccc(C#Cc2ccc(NC(=O)CC[C@H](NC(=O)[C@H](C)NC)C(=O)N3CCC[C@H]3C(=O)N[C@@H]3CCCc4ccccc43)cc2)cc1)C(=O)N1CCC[C@H]1C(=O)N[C@@H]1CCCc2ccccc21 [Compound P3-98]				> 1 µM	0.01 µM	0.012 µM	
CN[C@@H](C)C(=O)N[C@H](C(=O)N1C[C@@H](NC(=O)c2cccc(C(=O)N[C@H]3C[C@@H](C(=O)N[C@H](CO)c4ccccc4)N(C(=O)[C@@H](NC(=O)[C@H](C)NC)C(C)(C)C)C3)c2)C[C@H]1C(=O)N[C@H](CO)c1ccccc1)C(C)(C)C [Compound P3-99]				> 1 µM	0.062 µM	0.054 µM	
CN[C@@H](C)C(=O)N[C@H](C(=O)N1C[C@@H](NC(=O)c2ccc(C#Cc3ccc(C(=O)N[C@H]4C[C@@H](C(=O)N[C@@H]5CCCc6ccccc65)N(C(=O)[C@@H](NC(=O)[C@H](C)NC)C(C)(C)C)C4)cc3)cc2)C[C@H]1C(=O)N[C@@H]1CCCc2ccccc21)C(C)(C)C [Compound P3-100]				> 1 µM	0.054 µM	0.055 µM	
CN[C@@H](C)C(=O)N[C@H](C(=O)N1C[C@@H](NC(=O)C23CC4CC(C2)CC(C(=O)N[C@H]2C[C@@H](C(=O)N[C@H](C)c5ccccc5)N(C(=O)[C@@H](NC(=O)[C@H](C)NC)C(C)(C)C)C2)(C4)C3)C[C@H]1C(=O)N[C@H](C)c1ccccc1)C(C)(C)C [Compound P3-101]				> 1 µM	0.001 µM	0.001 µM	
CN[C@@H](C)C(=O)N[C@H](C(=O)N1C[C@@H](NC(=O)C2CCCC(C(=O)N[C@H]3C[C@@H](C(=O)N[C@H](C)c4ccccc4)N(C(=O)[C@@H](NC(=O)[C@H](C)NC)C(C)(C)C)C3)C2)C[C@H]1C(=O)N[C@H](C)c1ccccc1)C(C)(C)C (stereo partly drawn) [Compound P3-102]					0.017 µM	0.023 µM	> 1 µM
